Results published in US9018414B2, “Substituted 3-phenylpropionic acids and the use thereof” (Bayer Intellectual Property GmbH, priority 2009, dated 2015).

Each compound was assayed on recombinant guanylate cyclase reporter cell line (assay: Action at recombinant guanylate cyclase reporter cell line (CHO reporter cell)). Conditions: MEC = minimal effective concentration; read-out: sGC-activating activity in the CHO reporter cell in vitro, MEC.
Type: cell-based
Description: The cellular action of the compounds according to the invention is determined at a recombinant guanylate cyclase reporter cell line, as described in F. Wunder et al., Anal. Biochem. 339, 104-112 (2005).
Work on C[C@H]([C@H](C(=O)Nc1cc(CCC(=O)O)ccc1Cl)c1ccc(CC(F)(F)F)cc1)C(F)(F)F (racemic) [Example 5, 3-[4-Chloro-3-({4,4,4-trifluoro-3-methyl-2-[4-(2,2,2-trifluoroethyl)phenyl]butanoyl}amino)phenyl]-propanoic acid] yielded a minimal effective concentration of 0.003 µM. C[C@H]([C@H](C(=O)Nc1cc(C2CC2C(=O)O)ccc1F)c1ccc(Cl)cc1)C(F)(F)F (single isomer, unassigned) [Example 53] was tested, and the minimal effective concentration was 0.3 µM. Work on CCC[C@@H](CC(=O)O)c1ccc(Cl)c(NC(=O)[C@H](c2ccc(Cl)cc2)[C@@H](C)C(F)(F)F)c1 (single isomer, unassigned) [Example 82] yielded a minimal effective concentration of 0.00023 µM. C[C@H]([C@H](C(=O)Nc1cc([C@H](CC(=O)O)C(F)(F)F)ccc1Cl)c1ccc(Cl)cc1)C(F)(F)F (single isomer, unassigned) [Example 84] was tested, and the minimal effective concentration was 0.001 µM. CC[C@@H](CC(=O)O)c1ccc(Cl)c(NC(=O)[C@H](c2ccc(Cl)cc2)[C@@H](C)C(F)(F)F)c1 (single isomer, unassigned) [Example 87] gave a minimal effective concentration of 0.001 µM. For C[C@@H](Cc1ccc(Cl)c(NC(=O)C(c2ccc(Cl)cc2)C2CCC(F)(F)C2)c1)C(=O)O (single isomer, unassigned) [Example 105], the minimal effective concentration was 0.03 µM. With CCC(C)(Cc1ccc(Cl)c(NC(=O)[C@H](c2ccc(Cl)cc2)[C@@H](C)C(F)(F)F)c1)C(=O)O (single isomer, unassigned; (+)) [Example 71] the minimal effective concentration was 0.01 µM. With C[C@H]([C@H](C(=O)Nc1cc(CCC(=O)O)ccc1Cl)c1ccc(C(C)(C)C)cc1)C(F)(F)F [Example 2, (+)-3-(3-{[(2S,3R)-2-(4-tert-butylphenyl)-4,4,4-trifluoro-3-methylbutanoyl]amino}-4-chlorophenyl)-propanoic acid] the minimal effective concentration was 0.0003 µM. In the case of CCc1ccc([C@@H](C(=O)Nc2cc(C(C)CC(=O)O)ccc2Cl)[C@@H](C)C(F)(F)F)cc1 (stereo partly drawn) [Example 7, 3-(4-chloro-3-{[(2S,3R)-2-(4-ethylphenyl)-4,4,4-tri-fluoro-3-methylbutanoyl]amino}phenyl)butanoic acid], the minimal effective concentration is reported as 0.0002 µM. C[C@@H](CC(=O)O)c1ccc(Cl)c(NC(=O)C(c2ccc(Cl)cc2)C2CCCC2(F)F)c1 (stereo partly drawn) [Example 10, (3S)-3-(4-chloro-3-{[(4-chlorophenyl)(2,2-difluoro-cyclopentyl)acetyl]amino}phenyl)butanoic acid] was tested, and the minimal effective concentration was 0.0052 µM. Compound C[C@H]([C@H](C(=O)Nc1cc(C2(CC(=O)O)CC2)ccc1F)c1ccc(Cl)cc1)C(F)(F)F [Example 18, (+)-[1-(3-{[(2S,3R)-2-(4-Chlorophenyl)-4,4,4-trifluoro-3-methylbutanoyl]amino}-4-fluorophenyl)-cyclopropyl]acetic acid] has a minimal effective concentration of 0.01 µM. C[C@H](C(C(=O)Nc1cc(C2(CC(=O)O)CCC2)ccc1Cl)c1ccc(Cl)cc1)C(F)(F)F (stereo partly drawn) [Example 28, [1-(4-Chloro-3-{[(3R)-2-(4-chlorophenyl)-4,4,4-trifluoro-3-methylbutanoyl]amino}-phenyl)cyclobutyl]acetic acid] was tested, and the minimal effective concentration was 0.001 µM. Compound CC[C@@H](Cc1ccc(Cl)c(NC(=O)[C@H](c2ccc(Cl)cc2)[C@@H](C)C(F)(F)F)c1)C(=O)O [Example 30, (+)-(2S)-2-(4-Chloro-3-{[(2S,3R)-2-(4-chlorophenyl)-4,4,4-trifluoro-3-methylbutanoyl]amino}-benzyl)butanoic acid] has a minimal effective concentration of 0.0003 µM. Compound CC(Cc1ccc(F)c(NC(=O)C(c2ccc(Cl)cc2)[C@@H](C)C(F)(F)F)c1)C(=O)O (stereo partly drawn) [Example 37, 3-(3-{[(3R)-2-(4-Chlorophenyl)-4,4,4-trifluoro-3-methylbutanoyl]amino}-4-fluorophenyl)-2-methylpropanoic acid] has a minimal effective concentration of 0.01 µM. CC(C(=O)O)C(C)c1ccc(F)c(NC(=O)[C@H](c2ccc(Cl)cc2)[C@@H](C)C(F)(F)F)c1 (stereo partly drawn) [Example 50, threo-3-(3-{[(2S,3R)-2-(4-chlorophenyl)-4,4,4-tri-fluoro-3-methylbutanoyl]amino}-4-fluorophenyl)-2-methylbutanoic acid] gave a minimal effective concentration of 0.03 µM. With CCCC(CC(=O)O)c1ccc(Cl)c(NC(=O)[C@H](c2ccc(Cl)cc2)[C@@H](C)C(F)(F)F)c1 (stereo partly drawn) [Example 81, 3-(4-Chloro-3-{[(2S,3R)-2-(4-chlorophenyl)-4,4,4-trifluoro-3-methylbutanoyl]amino}phenyl)-hexanoic acid] the minimal effective concentration was 0.0003 µM. With C[C@H]([C@H](C(=O)Nc1cc(CC(C)(C)C(=O)O)ccc1Cl)c1ccc(Cl)cc1)C(F)(F)F [Example 89] the minimal effective concentration was 0.003 µM. For C[C@H]([C@H](C(=O)Nc1cc(C2(CC(=O)O)CCC2)ccc1Cl)c1ccc(Cl)cc1)C(F)(F)F [Example 90], the minimal effective concentration was 0.001 µM. Work on C[C@H]([C@H](C(=O)Nc1cc(C2(CC(=O)O)CC2)ccc1Cl)c1ccc(Cl)cc1)C(F)(F)F [Example 96] yielded a minimal effective concentration of 0.001 µM. In the case of CC(C(C(=O)Nc1cc(C[C@H](C)C(=O)O)ccc1Cl)c1ccc(CC(F)(F)F)cc1)C(F)(F)F (stereo partly shown) [Example 99], the minimal effective concentration is reported as 0.01 µM. Compound C[C@H]([C@H](C(=O)Nc1cc(C[C@H](C)C(=O)O)ccc1Cl)c1ccc(C2CC(F)(F)C2)cc1)C(F)(F)F [Example 100] has a minimal effective concentration of 0.003 µM. Compound C[C@H]([C@H](C(=O)Nc1cc(C2(CC(=O)O)CC(F)(F)C2)ccc1Cl)c1ccc(Cl)cc1)C(F)(F)F [Example 102] has a minimal effective concentration of 0.001 µM.
